Measurements as given in patent US8962574B2 (Boehringer Ingelheim International GmbH, priority 2008, dated 2015).

Columns and labels:
[1] = tested on: patients with atrial fibrillation at risk of stroke; assay: RELY Clinical Trial, dabigatran 110 mg or 150 mg twice daily versus warfarin; assay type: in vivo
Description: The primary study outcome was stroke or systemic embolism. The primary safety outcome was major hemorrhage. Secondary outcomes were stroke, systemic embolism and death. […] All other bleeding was considered minor.
All analyses were based on intention-to-treat.

[2] = tested on: patients with atrial fibrillation
Description: PETRO-Ex began while the PETRO study was ongoing and investigators were initially kept blinded to patient treatment group until PETRO was completed. Unblinding investigators to patient treatment was possible thereafter.
Data were summarized descriptively; no hypothesis was to be tested. Events were analyzed on the basis of the treatment at onset. Incidences were reported as number of patients with events as well as normalized to 100 patient-years on the respective treatment.
Written, informed consent was obtained from all patients.
Patients who completed PETRO on 50 mg b.i.d. were switched to 150 mg q.d. upon entry in the PETRO-Ex study (N=93 patients). […] Patients who were down titrated to 50 mg q.d. based on a glomerular filtration rate ≦50 mL/min during PETRO were excluded from the long-term trial; patients down-titrated in other dose levels remained on the q.d. treatment at that dose.
The total exposure reflects both trials, PETRO and PETRO-Ex, together.

[3] = tested on: patients with chronic atrial fibrillation; assay: PETRO phase 2 12-week dose finding study; assay type: in vivo, human; conditions: 12 weeks
Description: Primary endpoints were bleeding events and changes in D-dimer. […] Minor bleeding was dose related.

[4] = tested on: activated partial thromboplastin time (aPTT), ecarin clotting time, and thrombin clotting time; assay: Coagulation tests
[5] = of the 16 on treatment cases with AST or ALT >3×ULN

## [H]/N=C(/N)c1ccc(NCc2nc3cc(C(=O)N(CCC(=O)O)c4ccccn4)ccc3n2C)cc1 [dabigatran]
[1]; 110 mg b.i.d.
  Rate of hemorrhagic stroke: 0.12 % per year
  Rate of net benefit-risk outcome (major vascular events, major bleeding and death): 7.37 % per year
  Stroke, systemic embolism, pulmonary embolism, myocardial infarction death or major bleed (net benefit), Rate: 7.37 /100 Person Years
[1]; 110 mg vs. Warfarin
  First Hospitalization, RR: 0.92
  Non-disabling Stroke Modified Rankin 0-2, RR: 0.87
  Stroke or systemic embolism, RR: 0.91
  Stroke, Hemorrhagic, RR: 0.31
  Stroke, RR: 0.92
  Stroke, systemic embolism, pulmonary embolism, myocardial infarction death or major bleed (net benefit), RR: 0.92
[1]; 150 mg b.i.d.
  Rate of hemorrhagic stroke: 0.10 % per year
  Rate of net benefit-risk outcome (major vascular events, major bleeding and death): 7.22 % per year
  Stroke, systemic embolism, pulmonary embolism, myocardial infarction death or major bleed (net benefit), Rate: 7.22 /100 Person Years
[1]; 150 mg vs. 110 mg
  Stroke, Ischemic or Unspecified, RR: 0.68
  Stroke, RR: 0.70
  Stroke, systemic embolism, pulmonary embolism, myocardial infarction death or major bleed (net benefit), RR: 0.98
[1]; 150 mg vs. Warfarin
  First Hospitalization, RR: 0.97
  Non-disabling Stroke Modified Rankin 0-2, RR: 0.62
  Stroke or systemic embolism, RR: 0.66
  Stroke, Hemorrhagic, RR: 0.26
  Stroke, Ischemic or Unspecified, RR: 0.76
  Stroke, RR: 0.64
  Stroke, systemic embolism, pulmonary embolism, myocardial infarction death or major bleed (net benefit), RR: 0.90
[2]; all doses
  Fatal bleeding events, rate: 0.5 % per year
[2]; [5]
  LFT abnormality resolved after stopping, number of cases: 5
  LFT abnormality resolved with continuation, number of cases: 10
[2]; of the 18 cases with AST or ALT >3×ULN
  Cases with an explanatory clinical diagnosis, number: 9
[3]
  Change in D-dimer levels: comparable to warfarin
[4]
  Prolongation of aPTT, ecarin clotting time, and thrombin clotting time: dose dependent prolongation
